Results as given in article PMC8486872, “A rational blueprint for the design of chemically-controlled protein switches” (Nature Communications, 2021).
Where “and” joins values, the source holds several entries; their conditions need not be identical. Identical values can stand only once.

Legend:
Type in all cases: cell-based
[1] = test system: SEAP expression in HEK293T cells; assay: Background signal of SEAP reporter and single-construct controls
Experimental: Supplementary Figure 7: Dose-dependence and reversibility characterization of CDHs in CDH- […]
(§1) transfected with SEAP reporter S132 and treated with 1 µM Drugs 12 hours post transfection.
(§2) Quantification of SEAP was performed 24 hours after drug treatment. b) Drug specificity of CDH-TFs. […]
Background signal of SEAP reporter in the absence of the CDH-GEMS system. HEK293T cells were transfected with pLS566 SEAP reporter plasmids and treated with drugs. Quantification of SEAP was performed 24 hours post drug treatment. f) SEAP activity upon transfecting single or paired […]
Quantification of SEAP activity of three CDHs with DMSO (dark color), specific (light color) and unspecific drug treatment (gray). […]
(culture medium) in panels of b, c, f and g were collected every 12 hours. Values were normalized to zero based on the SEAP expression at time 0. a, b, e, f, g) The bar charts show the mean ± s.d. of n = 3 biologically independent samples overlaid with a scatter dot plot of the original data points.

[2] = test system: Gal4/UAS SEAP expression in HEK293T cells; assay: Drug specificity of CDH-TFs; settings: Suppl Fig 7b
Experimental: Supplementary Figure 7: Dose-dependence and reversibility characterization of CDHs in CDH-
a) Background signal of SEAP reporter in the absence of the CDH-TF system. HEK239T cells were
as §1, §2

[3] = test system: SEAP and Luciferase expression in HEK293T cells; assay: MIMO designer cells (AIR-1/2-GEMS + CDH-3-TF); settings: for Luciferase: Fig5c, turn OFF via CDH-3-TF; for AIR-1-GEMS controlled SEAP expression: Fig S13c; for AIR-2-GEMS controlled SEAP expression: Fig S13e
Description: We first engineered MIMO cells to respond to two drugs with distinct outputs (Fig. 5a) by co-transfecting the CDH-3-TF with either AIR-1-GEMS (Fig. 5b) or AIR-2-GEMS (Fig. 5c).
Fig. 5 Orthogonal chemical switches enable implementation of multi-input multi-output control modes in mammalian cells. a Scheme of multi-inputs multi-outputs (MIMO) designer cells where two drugs control two different outputs. b, c Cells were co-transfected with AIR-1/2-GEMS and CDH-3-TF regulate SEAP and Luciferase expression, respectively. […] AIR-1/2-GEMS coupled with SEAP expression circuits were co-transfected with CDH-1/2-TF circuits which control the Luciferase production. Respective drug concentrations ranged from 0.001 nM to 1 µM. All values presented are mean ± s.d. of three replicates and curves were fitted by four-parameters nonlinear regression. b, c, e, f, h, i Source data are available in the source data file.
Supplementary Figure 13: Orthogonal chemical switches enable implementation of multi-input multi-output control modes in mammalian cells. a) Dual drug toxicity tests in 293T cells. […]
concentrations of 1 nM, 10 nM, 100 nM and 1000 nM each drug in cell culture medium. CCK8 assay was performed 24 hours after drug treatment. Each bar represents the mean of three biological replicates ± s.d, overlaid with a scatter dot plot of the original data points. b-c) Cells were co-transfected with AIR-1-GEMS and CDH-3-TF regulate SEAP and Luciferase expression, respectively. Drug concentrations ranged from 0.001 nM to 1 µM and different combinations were added depending on the protein components, Drug-1 only (b) and Drug-3 only (c). d-e) Cells were co-transfected with AIR-2-GEMS and CDH-3-TF regulate SEAP and Luciferase expression, respectively. Drug concentrations ranged from 0.001 nM to 1 µM and different combinations were added depending on the protein […]
1-TF and CDH-3-TF circuits. Drug-1 concentrations ranged from 0.001 nM to 1 µM (left) and 1 µM Drug-1 with serial diluted Drug-3 from 0.001 nM to 1 µM (right). g) Quantification of SEAP activity controlled by CDH-1-GEMS and CDH-3-GEMS circuits. Drug-1 concentrations ranged from 0.001 nM to 1 µM (left) and Drug-3 dilution along with 1 µM Drug-1 (right). h-i) Quantification of SEAP and Luciferase activities under Drug-1. AIR-1-GEMS coupled with SEAP expression circuits (i) and CDH-1-TF circuits which control the Luciferase production (j). j-k) Quantification of SEAP and Luciferase activities under Drug-2. AIR-2-GEMS coupled with SEAP expression circuits (k) and CDH-2-TF circuits which control the Luciferase production (l). b-k) Each data point represents the mean of n = 3 biological replicates, and the dose-dependent curve were fitted using four-parameter nonlinear regression.

[4] = Fig5c Luciferase via CDH-3-TF, four-parameter fit

## COc1cc2c(cc1OC(C)C)[C@H](c1ccc(Cl)cc1)N(c1ccc(N(C)C[C@H]3CC[C@H](N4CCN(C)C(=O)C4)CC3)cc1)C(=O)C2 [Drug-3, NVP-CGM097]
[1]; Suppl Fig 7a, TF reporter (S132) only
  Reporter background signal: 2.305 and 2.301 and 2.45
[1]; Suppl Fig 7e, GEMS reporter (pLS566) only
  Reporter background signal: 5.089 and 3.395 and 2.755
[2]; CDH1
  Reporter signal, drug specificity: 58.9096 and 56.9625 and 57.522
[2]; CDH2
  Reporter signal, drug specificity: 99.5028 and 95.5176 and 91.4654
[2]; CDH3
  Reporter signal, drug specificity: 52.7796 and 52.4144 and 49.1641
[3]; [4]
  Bottom (best-fit value): 2526
  HillSlope (best-fit value): -0.2874
  Span (best-fit value): 8582
  Top (best-fit value): 11108
[3]; Fig5c Luciferase via CDH-3-TF, four-parameter fit, drug in nM
  logIC50 (best-fit value): 0.378
[3]; 0.001 nM
  Luciferase: 11408 and 10803 and 9477
[3]; 0.01 nM
  Luciferase: 8964 and 10094 and 8469
[3]; 0.05 nM
  Luciferase: 9839 and 9595 and 9040
[3]; 0.1 nM
  Luciferase: 9399 and 10012 and 6733
[3]; 0.5 nM
  Luciferase: 8698 and 9248 and 7194
[3]; 1 nM
  Luciferase: 7508 and 6014 and 5224
[3]; 5 nM
  Luciferase: 7040 and 7013 and 4899
[3]; 50 nM
  Luciferase: 6881 and 6483 and 4547
[3]; 100 nM
  Luciferase: 6853 and 5994 and 4849
[3]; 500 nM
  Luciferase: 3847 and 3669 and 3338
[3]; 1000 nM
  Luciferase: 2560 and 2436 and 2236
[3]; Fig S13c (with AIR-1-GEMS), Drug-3 0.01 nM
  CDH-3-TF controlled Luciferase expression: 74322 RLU and 90639 RLU and 90152 RLU
[3]; Fig S13c (with AIR-1-GEMS), Drug-3 0.1 nM
  CDH-3-TF controlled Luciferase expression: 79497 RLU and 97593 RLU and 89748 RLU
[3]; Fig S13c (with AIR-1-GEMS), Drug-3 1 nM
  CDH-3-TF controlled Luciferase expression: 92895 RLU and 90324 RLU and 97096 RLU
[3]; Fig S13c (with AIR-1-GEMS), Drug-3 3.14 nM
  CDH-3-TF controlled Luciferase expression: 89025 RLU and 81214 RLU and 83886 RLU
[3]; Fig S13c (with AIR-1-GEMS), Drug-3 10 nM
  CDH-3-TF controlled Luciferase expression: 71915 RLU and 80976 RLU and 86610 RLU
[3]; Fig S13c (with AIR-1-GEMS), Drug-3 31.4 nM
  CDH-3-TF controlled Luciferase expression: 73972 RLU and 79521 RLU and 71327 RLU
[3]; Fig S13c (with AIR-1-GEMS), Drug-3 100 nM
  CDH-3-TF controlled Luciferase expression: 58208 RLU and 70422 RLU and 71065 RLU
[3]; Fig S13c (with AIR-1-GEMS), Drug-3 314 nM
  CDH-3-TF controlled Luciferase expression: 42892 RLU and 48456 RLU and 50289 RLU
[3]; Fig S13c (with AIR-1-GEMS), Drug-3 1000 nM
  CDH-3-TF controlled Luciferase expression: 30804 RLU and 29063 RLU and 25322 RLU
[3]; Drug-3 0.01 nM
  AIR-1-GEMS controlled SEAP expression: 2.627 U/L and 3.059 U/L and 3.456 U/L
  AIR-2-GEMS controlled SEAP expression: 23.8276 U/L and 27.0293 U/L and 24.7478 U/L
[3]; Drug-3 0.1 nM
  AIR-1-GEMS controlled SEAP expression: 2.503 U/L and 2.294 U/L and 2.87 U/L
  AIR-2-GEMS controlled SEAP expression: 31.2293 U/L and 29.7436 U/L and 28.9473 U/L
[3]; Drug-3 1 nM
  AIR-1-GEMS controlled SEAP expression: 2.418 U/L and 1.987 U/L and 3.339 U/L
  AIR-2-GEMS controlled SEAP expression: 33.4988 U/L and 33.4382 U/L and 38.599 U/L
[3]; Drug-3 3.14 nM
  AIR-1-GEMS controlled SEAP expression: 2.659 U/L and 2.285 U/L and 3.202 U/L
  AIR-2-GEMS controlled SEAP expression: 29.7735 U/L and 33.7772 U/L and 32.4262 U/L
[3]; Drug-3 10 nM
  AIR-1-GEMS controlled SEAP expression: 2.675 U/L and 2.964 U/L and 4.021 U/L
  AIR-2-GEMS controlled SEAP expression: 34.6343 U/L and 33.3124 U/L and 32.8022 U/L
[3]; Drug-3 31.4 nM
  AIR-1-GEMS controlled SEAP expression: 3.041 U/L and 3.191 U/L and 3.396 U/L
  AIR-2-GEMS controlled SEAP expression: 36.5713 U/L and 29.6375 U/L and 31.1491 U/L
[3]; Drug-3 100 nM
  AIR-1-GEMS controlled SEAP expression: 2.602 U/L and 2.779 U/L and 2.696 U/L
  AIR-2-GEMS controlled SEAP expression: 34.5656 U/L and 34.2561 U/L and 36.2322 U/L
[3]; Drug-3 314 nM
  AIR-1-GEMS controlled SEAP expression: 2.611 U/L and 3.076 U/L and 2.832 U/L
  AIR-2-GEMS controlled SEAP expression: 30.9331 U/L and 30.4872 U/L and 34.4499 U/L
[3]; Drug-3 1000 nM
  AIR-1-GEMS controlled SEAP expression: 3.25 U/L and 2.611 U/L and 2.639 U/L
  AIR-2-GEMS controlled SEAP expression: 13.1028 U/L and 12.5357 U/L and 11.75 U/L
[3]; Fig S13e (with AIR-2-GEMS), Drug-3 0.01 nM
  CDH-3-TF controlled Luciferase expression: 41565 RLU and 51927 RLU and 50033 RLU
[3]; Fig S13e (with AIR-2-GEMS), Drug-3 0.1 nM
  CDH-3-TF controlled Luciferase expression: 58083 RLU and 52382 RLU and 52587 RLU
[3]; Fig S13e (with AIR-2-GEMS), Drug-3 1 nM
  CDH-3-TF controlled Luciferase expression: 58208 RLU and 58951 RLU and 60752 RLU
[3]; Fig S13e (with AIR-2-GEMS), Drug-3 3.14 nM
  CDH-3-TF controlled Luciferase expression: 50716 RLU and 61071 RLU and 59090 RLU
[3]; Fig S13e (with AIR-2-GEMS), Drug-3 10 nM
  CDH-3-TF controlled Luciferase expression: 56023 RLU and 57202 RLU and 60529 RLU
[3]; Fig S13e (with AIR-2-GEMS), Drug-3 31.4 nM
  CDH-3-TF controlled Luciferase expression: 53333 RLU and 47578 RLU and 50640 RLU
[3]; Fig S13e (with AIR-2-GEMS), Drug-3 100 nM
  CDH-3-TF controlled Luciferase expression: 44259 RLU and 48370 RLU and 51647 RLU
[3]; Fig S13e (with AIR-2-GEMS), Drug-3 314 nM
  CDH-3-TF controlled Luciferase expression: 32705 RLU and 39602 RLU and 35080 RLU
[3]; Fig S13e (with AIR-2-GEMS), Drug-3 1000 nM
  CDH-3-TF controlled Luciferase expression: 15038 RLU and 22579 RLU and 17745 RLU
[3]; Homo sapiens, HEK-293T, Fig5c Luciferase turn OFF via CDH-3-TF, four-parameter fit, read-out: IC50 (best-fit value)
  IC50: 2.39 nM
